Results from US20250221413A1, “Use and Preparation Method of Sulfoxamyl, and Oxidation System” (priority 2023, published 2025).
In brackets after ≈: the same amount, converted by molar mass. Several values for one entry are separate records, joined by “and”; a condition that tells them apart may be missing. Equal entries are not always repeated. Entries after “also recorded” stand apart in the source; their conditions may differ. Where two headings read alike, the source gives them in different places.

How the values were obtained:
Meloidogyne incognita = assay: Indoor toxicity test against Meloidogyne incognita second-instar larvae (J2); conditions: for LC50 / mortality at 3.1 µg/mL / mortality at 6.25 µg/mL / mortality at 12.5 µg/mL / mortality at 25 µg/mL / mortality at 50 µg/mL / mortality at 100 µg/mL: Meloidogyne incognita
Protocol: Materials: the tested nematodes were collected from three different areas, namely cucumber crops in Dawenkou Town, Tai'an City, Shandong Province, and were all identified as southern root-knot nematodes (Meloidogyne incognita). The diseased roots were washed, cut into small sections of 0.5 cm to 1 cm, rinsed in 1% NaClO solution for about 30 s to 60 s, and rinsed with 200-mesh and 500-mesh sieves to collect nematode eggs for later use. The collected eggs were incubated at 25° C. using the Bayman funnel method and the second-instar larvae were collected 1 time per 24 h to ensure that the second-instar larvae selected each time were fresh and of consistent vitality.
The agent was 98% sulfoxamyl technical, and the comparison agents were 96% oxamyl technical and 87% fosthiazate technical.
The preparation for the agent was in accordance with the provisions for preparation of the liquid medicine in the Agricultural Industry Standard of the People's Republic of China NYT 1833.1-2009 “Guideline for laboratory bioassay of pesticides”, as shown in Table 6.
Methods: according to the experimental plan, the test agent was diluted to different mass concentrations, and 0.5 mL of the agent solution and 0.5 mL of the nematode solution (containing about 100 nematodes) were added into a 24-well cell culture plate. The treatment with each concentration of the agent was repeated 4 times, and auxiliary agent control and blank control were also conducted. […]

SD rats = assay: Acute skin toxicity test (limit test); assay type: in vivo
Protocol: (§1) Materials: the test agent 98% sulfoxamyl technical, batch number 20230708-1, was provided by Ningxia Hugerise Chemical Co., Ltd. Experimental animals: SPF-grade SD rats, half male and half female, weighing 180 g to 220 g, were provided by Jinan Pengyue Experimental Animal Breeding Co., Ltd., license number SCXK (Lu) 20190003. Rearing environment: the rats were housed in an SPF-grade animal room with free access to water and food, a temperature of 20° C. to 25° C., a humidity of 40% to 60%, and a 12 h/12 h light cycle. Feed: conventional pellet feed was provided by Jinan Pengyue Experimental Animal Breeding Co., Ltd.
(§2) The test was conducted in accordance with “Toxicological test methods of pesticides for registration, GB15670.5-2017”, “Acute toxicity test, GB15193.3-2003” and relevant acute toxicity research data.
(§3) Method: the sulfoxamyl was ground into powder, passed through a 200-mesh sieve, and fully moistened with 0.5% tragacanth solution to ensure desirable contact between the drug and the skin. The dose limit of the drug's transdermal toxicity was preliminarily determined through a limit test. According to the “Toxicological test methods of pesticides for registration, GB/T 15670.5-2017”, 2,000 mg/kg was selected as the dose limit. 10 SD rats were selected, half male and half female. After removing the fur and preparing the skin on the midline of the rats' backs, the prepared skin area was 36 cm^2 to 40 cm^2. The drug was evenly applied to the fur-removed area and covered and fixed with multiple layers of sterile gauze; after 24 h of exposure to the poison, the residual drug on the skin was removed; the rats were observed once a day for 14 consecutive days, and their poisoning reaction, development process, and death were recorded.

[1] = Acute skin toxicity test (limit test); assay type: in vivo, SD rats; conditions: both sexes, rat, in vivo, topical, 2000 mg/kg; SD rats, 24 h exposure, 14 days observation; read-out: acute percutaneous toxicity LD50
Protocol: as §1, §2, §3

CNC(=O)O/N=C(/C(=O)N(C)C)S(C)(=O)=O [Sulfoxamyl, N,N-dimethyl-2-[[[(methylamino)carbonyl]oxy]imino]-2-(methylsulfonyl)acetamide]
Corrected mortality (Meloidogyne incognita; 3.1 mg/L, 24 h): 16.24% and 26.66% and 16.93% | Mortality (Meloidogyne incognita; 3.1 mg/L, 24 h): 17.27% and 27.56% and 17.95% | Corrected mortality (Meloidogyne incognita; 3.1 mg/L, 48 h): 26.21% and 30.50% and 18.49% | Death count (Meloidogyne incognita; 3.1 mg/L, 48 h): 21 and 30 and 40 and 23 | Mortality (Meloidogyne incognita; 3.1 mg/L, 48 h): 27.27% and 31.50% and 19.66% | Corrected mortality (Meloidogyne incognita; 3.1 mg/L, 72 h): 36.09% and 39.84% and 31.21% | Death count (Meloidogyne incognita; 3.1 mg/L, 72 h): 39 and 41 and 52 and 38 | Mortality (Meloidogyne incognita; 3.1 mg/L, 72 h): 37.27% and 40.94% and 32.48% | Corrected mortality (Meloidogyne incognita; 6.25 mg/L, 24 h): 22.19% and 15.49% and 28.36% | Death count (Meloidogyne incognita; 6.25 mg/L, 24 h): 19 and 25 and 20 and 31 | Mortality (Meloidogyne incognita; 6.25 mg/L, 24 h): 23.15% and 16.53% and 29.25% | Corrected mortality (Meloidogyne incognita; 6.25 mg/L, 48 h): 30.48% and 22.86% and 33.96% | Death count (Meloidogyne incognita; 6.25 mg/L, 48 h): 36 and 34 and 29 and 37 | Mortality (Meloidogyne incognita; 6.25 mg/L, 48 h): 31.48% and 23.97% and 34.91% | Corrected mortality (Meloidogyne incognita; 6.25 mg/L, 72 h): 32.08% and 27.59% and 38.49% | Death count (Meloidogyne incognita; 6.25 mg/L, 72 h): 41 and 36 and 35 and 42 | Mortality (Meloidogyne incognita; 6.25 mg/L, 72 h): 33.33% and 28.93% and 39.62% | Corrected mortality (Meloidogyne incognita; 12.5 mg/L, 24 h): 43.94% and 48.97% and 49.86% | Death count (Meloidogyne incognita; 12.5 mg/L, 24 h): 56 and 54 and 62 and 53 | Mortality (Meloidogyne incognita; 12.5 mg/L, 24 h): 44.63% and 49.60% and 50.48% | Corrected mortality (Meloidogyne incognita; 12.5 mg/L, 48 h): 56.40% and 56.17% and 57.49% | Death count (Meloidogyne incognita; 12.5 mg/L, 48 h): 67 and 69 and 71 and 61 | Mortality (Meloidogyne incognita; 12.5 mg/L, 48 h): 57.02% and 56.80% and 58.10% | Corrected mortality (Meloidogyne incognita; 12.5 mg/L, 72 h): 61.27% and 67.40% and 67.01% | Death count (Meloidogyne incognita; 12.5 mg/L, 72 h): 71 and 75 and 85 | Mortality (Meloidogyne incognita; 12.5 mg/L, 72 h): 61.98% and 68.00% and 67.62% | Corrected mortality (Meloidogyne incognita; 25 mg/L, 24 h): 58.55% and 63.70% and 68.85% | Death count (Meloidogyne incognita; 25 mg/L, 24 h): 78 and 75 and 68 and 90 | Mortality (Meloidogyne incognita; 25 mg/L, 24 h): 59.06% and 64.15% and 69.23% | Corrected mortality (Meloidogyne incognita; 25 mg/L, 48 h): 63.25% and 67.46% and 68.78% | Death count (Meloidogyne incognita; 25 mg/L, 48 h): 78 and 81 and 72 and 90 | Mortality (Meloidogyne incognita; 25 mg/L, 48 h): 63.78% and 67.92% and 69.23% | Corrected mortality (Meloidogyne incognita; 25 mg/L, 72 h): 74.33% and 84.62% and 68.65% | Death count (Meloidogyne incognita; 25 mg/L, 72 h): 78 and 95 and 90 | Mortality (Meloidogyne incognita; 25 mg/L, 72 h): 74.80% and 84.91% and 69.23% | Corrected mortality (Meloidogyne incognita; 50 mg/L, 24 h): 82.02% | Death count (Meloidogyne incognita; 50 mg/L, 24 h): 101 and 88 and 92 | Mortality (Meloidogyne incognita; 50 mg/L, 24 h): 82.24% | Death count (Meloidogyne incognita; 50 mg/L, 48 h): 108 and 95 and 111 and 98 | Corrected mortality (Meloidogyne incognita; 50 mg/L, 72 h): 92.38% | Death count (Meloidogyne incognita; 50 mg/L, 72 h): 115 and 99 and 120 and 101 | Mortality (Meloidogyne incognita; 50 mg/L, 72 h): 92.52% | Death count (Meloidogyne incognita; 100 mg/L, 24 h): 105 and 102 and 120 and 107 | Death count (Meloidogyne incognita; 100 mg/L, 48 h): 108 and 102 and 121 | Death count (Meloidogyne incognita; 100 mg/L, 72 h): 109 and 102 and 121 and 108 | LC90 (Meloidogyne incognita; 24 h): 52.89 µg/mL (≈ 210 µM) | LC90 (Meloidogyne incognita; 48 h): 56.41 µg/mL (≈ 225 µM) | LC90 (Meloidogyne incognita; 72 h): 36.84 µg/mL (≈ 147 µM) | LC50 (Meloidogyne incognita; 24 h): 12.5 µg/mL (≈ 49.8 µM) | mortality at 3.1 µg/mL (Meloidogyne incognita; 24 h, 3.1 mg/L): 14.4% | mortality at 6.25 µg/mL (Meloidogyne incognita; 24 h, 6.25 mg/L): 16.4% | mortality at 12.5 µg/mL (Meloidogyne incognita; 24 h, 12.5 mg/L): 51.4% | mortality at 25 µg/mL (Meloidogyne incognita; 24 h, 25 mg/L): 66.1% | mortality at 50 µg/mL (Meloidogyne incognita; 24 h, 50 mg/L): 86.3% | mortality at 100 µg/mL (Meloidogyne incognita; 24 h, 100 mg/L): 96.3% | mortality at 3.1 µg/mL (Meloidogyne incognita; 24 h, read-out: Corrected mortality, 3.1 mg/L, 24 h): 13.4% | mortality at 6.25 µg/mL (Meloidogyne incognita; 24 h, read-out: Corrected mortality, 6.25 mg/L, 24 h): 15.3% | mortality at 12.5 µg/mL (Meloidogyne incognita; 24 h, read-out: Corrected mortality, 12.5 mg/L, 24 h): 50.8% | mortality at 25 µg/mL (Meloidogyne incognita; 24 h, read-out: Corrected mortality, 25 mg/L, 24 h): 65.7% | mortality at 50 µg/mL (Meloidogyne incognita; 24 h, read-out: Corrected mortality, 50 mg/L, 24 h): 86.2% | mortality at 100 µg/mL (Meloidogyne incognita; 24 h, read-out: Corrected mortality, 100 mg/L, 24 h): 96.3% | LC50 (Meloidogyne incognita; 48 h): 10.2 µg/mL (≈ 40.7 µM) | mortality at 3.1 µg/mL (Meloidogyne incognita; 48 h, 3.1 mg/L): 20.2% | mortality at 6.25 µg/mL (Meloidogyne incognita; 48 h, 6.25 mg/L): 31% | mortality at 12.5 µg/mL (Meloidogyne incognita; 48 h, 12.5 mg/L): 61.5% | mortality at 25 µg/mL (Meloidogyne incognita; 48 h, 25 mg/L): 66.1% | mortality at 50 µg/mL (Meloidogyne incognita; 48 h, 50 mg/L): 92.3% | mortality at 100 µg/mL (Meloidogyne incognita; 48 h, 100 mg/L): 99.1% | mortality at 3.1 µg/mL (Meloidogyne incognita; 48 h, read-out: Corrected mortality, 3.1 mg/L, 48 h): 19% | mortality at 6.25 µg/mL (Meloidogyne incognita; 48 h, read-out: Corrected mortality, 6.25 mg/L, 48 h): 30% | mortality at 12.5 µg/mL (Meloidogyne incognita; 48 h, read-out: Corrected mortality, 12.5 mg/L, 48 h): 60.9% | mortality at 25 µg/mL (Meloidogyne incognita; 48 h, read-out: Corrected mortality, 25 mg/L, 48 h): 65.6% | mortality at 50 µg/mL (Meloidogyne incognita; 48 h, read-out: Corrected mortality, 50 mg/L, 48 h): 92.2% | mortality at 100 µg/mL (Meloidogyne incognita; 48 h, read-out: Corrected mortality, 100 mg/L, 48 h): 99.1% | LC50 (Meloidogyne incognita; 72 h): 7.41 µg/mL (≈ 29.5 µM) | mortality at 3.1 µg/mL (Meloidogyne incognita; 72 h, 3.1 mg/L): 37.5% | mortality at 6.25 µg/mL (Meloidogyne incognita; 72 h, 6.25 mg/L): 35.3% | mortality at 12.5 µg/mL (Meloidogyne incognita; 72 h, 12.5 mg/L): 65.1% | mortality at 25 µg/mL (Meloidogyne incognita; 72 h, 25 mg/L): 66.1% | mortality at 50 µg/mL (Meloidogyne incognita; 72 h, 50 mg/L): 98.3% | mortality at 100 µg/mL (Meloidogyne incognita; 72 h, 100 mg/L): 100% | mortality at 3.1 µg/mL (Meloidogyne incognita; 72 h, read-out: Corrected mortality, 3.1 mg/L, 72 h): 36.3% | mortality at 6.25 µg/mL (Meloidogyne incognita; 72 h, read-out: Corrected mortality, 6.25 mg/L, 72 h): 34.1% | mortality at 12.5 µg/mL (Meloidogyne incognita; 72 h, read-out: Corrected mortality, 12.5 mg/L, 72 h): 64.5% | mortality at 25 µg/mL (Meloidogyne incognita; 72 h, read-out: Corrected mortality, 25 mg/L, 72 h): 65.5% | mortality at 50 µg/mL (Meloidogyne incognita; 72 h, read-out: Corrected mortality, 50 mg/L, 72 h): 98.3% | mortality at 100 µg/mL (Meloidogyne incognita; 72 h, read-out: Corrected mortality, 100 mg/L, 72 h): 100% | killing (indoor nematicidal) activity against Meloidogyne incognita J2, in words (Meloidogyne incognita; compared with oxamyl and fosthiazate): high killing activity; also recorded: higher than that of oxamyl; also recorded: higher than that of fosthiazate | percutaneous toxicity, in words (SD rats; 2,000 mg/kg): no percutaneous toxicity | Main clinical symptom (SD rats; 2,000 mg/kg on skin, 10 SD rats): skin is intact, normal in color, and without redness or swelling | deaths (SD rats; 2,000 mg/kg on skin, 10 SD rats, 14 days): none of the 10 rats die | Main clinical symptom (SD rats; 2,000 mg/kg on skin, 10 SD rats, listed as sulfoxamyl): Normal | toxicity level (acute percutaneous) (SD rats; GB15670-1995 classification): low toxic; also recorded: Low Toxicity | LD50 at 14 days [1]: > 2000 mg/kg
